For 22 compounds, IC50 results are on record in patent US9944646B2, “Bicyclic azaheterocyclobenzylamines as PI3K inhibitors” (Incyte Corporation, priority 2012, dated 2018).

The structures appear in SMILES notation. Structures can show the parent of a compound that is named as a salt.

Sequence of PI3Kδ (p110δ/p85α) (O00329 whole entry): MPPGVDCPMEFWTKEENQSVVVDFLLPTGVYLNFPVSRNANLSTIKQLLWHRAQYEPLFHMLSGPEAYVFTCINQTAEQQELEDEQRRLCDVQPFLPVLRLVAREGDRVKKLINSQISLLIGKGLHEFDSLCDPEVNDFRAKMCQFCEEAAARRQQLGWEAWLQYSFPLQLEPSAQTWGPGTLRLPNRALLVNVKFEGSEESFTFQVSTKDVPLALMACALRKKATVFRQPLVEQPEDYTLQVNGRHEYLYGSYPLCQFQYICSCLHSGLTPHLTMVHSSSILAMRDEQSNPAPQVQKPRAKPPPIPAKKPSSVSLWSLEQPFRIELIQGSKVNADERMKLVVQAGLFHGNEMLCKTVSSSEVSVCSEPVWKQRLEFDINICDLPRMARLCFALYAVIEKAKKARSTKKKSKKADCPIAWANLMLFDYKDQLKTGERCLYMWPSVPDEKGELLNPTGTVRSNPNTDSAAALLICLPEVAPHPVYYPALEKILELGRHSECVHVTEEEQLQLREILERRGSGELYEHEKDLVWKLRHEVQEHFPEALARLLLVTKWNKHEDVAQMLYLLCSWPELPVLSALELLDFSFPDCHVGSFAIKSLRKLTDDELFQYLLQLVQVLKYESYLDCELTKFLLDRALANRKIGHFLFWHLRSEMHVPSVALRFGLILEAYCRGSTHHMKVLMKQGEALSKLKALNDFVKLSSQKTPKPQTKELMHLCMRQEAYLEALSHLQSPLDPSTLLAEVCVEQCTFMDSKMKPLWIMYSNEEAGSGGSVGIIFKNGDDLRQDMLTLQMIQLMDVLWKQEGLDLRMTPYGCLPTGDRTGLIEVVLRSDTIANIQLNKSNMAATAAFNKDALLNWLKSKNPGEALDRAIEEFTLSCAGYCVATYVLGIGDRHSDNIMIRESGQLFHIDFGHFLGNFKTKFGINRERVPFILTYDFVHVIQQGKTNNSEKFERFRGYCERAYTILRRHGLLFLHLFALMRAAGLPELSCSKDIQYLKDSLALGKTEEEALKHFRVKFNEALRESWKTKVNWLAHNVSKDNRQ
Sequence of PI3Kδ (p110δ/p85α) (P27986 whole entry partner): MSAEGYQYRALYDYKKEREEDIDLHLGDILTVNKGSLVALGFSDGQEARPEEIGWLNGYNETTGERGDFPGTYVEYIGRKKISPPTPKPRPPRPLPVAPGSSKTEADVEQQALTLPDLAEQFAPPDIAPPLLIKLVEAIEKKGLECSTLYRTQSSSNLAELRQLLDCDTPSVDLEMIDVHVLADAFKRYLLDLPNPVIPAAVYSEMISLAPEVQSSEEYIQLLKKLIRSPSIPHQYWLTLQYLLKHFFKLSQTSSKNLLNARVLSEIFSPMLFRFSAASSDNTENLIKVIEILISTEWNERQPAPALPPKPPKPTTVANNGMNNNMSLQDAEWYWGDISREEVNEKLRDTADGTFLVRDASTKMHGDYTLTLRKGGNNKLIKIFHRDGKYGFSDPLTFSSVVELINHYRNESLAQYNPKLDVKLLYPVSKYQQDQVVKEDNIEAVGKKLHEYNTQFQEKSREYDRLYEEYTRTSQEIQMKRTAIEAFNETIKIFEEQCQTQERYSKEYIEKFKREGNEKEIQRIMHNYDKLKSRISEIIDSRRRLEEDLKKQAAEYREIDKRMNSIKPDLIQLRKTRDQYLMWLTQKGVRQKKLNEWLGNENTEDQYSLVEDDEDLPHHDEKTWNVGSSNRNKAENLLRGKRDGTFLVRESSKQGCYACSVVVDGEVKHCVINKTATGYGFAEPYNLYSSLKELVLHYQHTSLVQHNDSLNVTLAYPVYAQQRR
Sequence of PI3Kδ (O00329 whole entry): as the sequence (O00329 whole entry) above
Sequence of PI3Kδ (P27986 whole entry partner): as the sequence (P27986 whole entry partner) above

One experiment has as its target PI3Kδ (Homo sapiens (Human), UniProt O00329). In words: PI3K Enzyme Assay (Example A2), [γ-33P]ATP filter plate. The format is biochemical. The method in brief: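 Recombinant PI3Kδ at 2.9 nM with 50 µM PIP2 in MOPS pH 6.7, MgCl2, DTT, CHAPS, 0.5% DMSO; started with 1000 μM ATP including [γ-33P]ATP, 180 min at room temperature. Phosphorylated product captured on PVDF filter plates and scintillation-counted; IC50 from percent-control activity vs log concentration.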
A word on the IC50: it is the concentration at which inhibition is half-maximal. Higher therefore signals lower potency. `Cc1nn(C(C)c2cc(Cl)c(C#N)c3c2OC(C)CN(C2CN(CCO)C2)C3)c2ncnc(N)c12` (single isomer, unassigned) [Example 103, 9-[1-(4-amino-3-methyl-1H-pyrazolo[3,4-d]pyrimidin-1-yl)ethyl]-7-chloro-4-[1-(2-hydroxyethyl)azetidin-3-yl]-2-methyl-2,3,4,5-tetrahydro-1,4-benzoxazepine-6-carbonitrile] yielded an IC50 of at most 0.1 µM.
`Cc1nn(C(C)c2cc(Cl)c(C#N)c3c2OC(C)CN(C2CN(CC(C)(C)O)C2)C3)c2ncnc(N)c12` (single isomer, unassigned) [Example 54, 9-[1-(4-Amino-3-methyl-1H-pyrazolo[3,4-d]pyrimidin-1-yl)ethyl]-7-chloro-4-[1-(2-hydroxy-2-methylpropyl)azetidin-3-yl]-2-methyl-2,3,4,5-tetrahydro-1,4-benzoxazepine-6-carbonitrile]: the IC50 was at most 0.1 µM.
For `Cc1nn(C(C)c2cc(Cl)c(C#N)c3c2OC(C)CN(C2CN(C(=O)NC(C)C)C2)C3)c2ncnc(N)c12` (single isomer, unassigned) [Example 102, 3-[9-[1-(4-amino-3-methyl-1H-pyrazolo[3,4-d]pyrimidin-1-yl)ethyl]-7-chloro-6-cyano-2-methyl-2,3-dihydro-1,4-benzoxazepin-4(5H)-yl]-N-isopropylazetidine-1-carboxamide], the IC50 is at most 0.1 µM.
The same measure, in the same setting: for `Cc1nn(C(C)c2cc(Cl)c(F)c3c2OC(C)CN(C[C@@H](C)O)C3)c2ncnc(N)c12` (single isomer, unassigned) [Example 77] the value was at most 0.1 µM; for `CNC(=O)C1CC(N2Cc3c(C#N)c(Cl)cc(C(C)n4nc(C)c5c(N)ncnc54)c3OC(C)C2)C1` (single isomer, unassigned) [Example 114, 3-[9-[1-(4-amino-3-methyl-1H-pyrazolo[3,4-d]pyrimidin-1-yl)ethyl]-7-chloro-6-cyano-2-methyl-2,3-dihydro-1,4-benzoxazepin-4(5H)-yl]-N-methylcyclobutanecarboxamide], at most 0.1 µM; for `Cc1nn(C(C)c2cc(Cl)c(C#N)c3c2OC(C)CN(C2CN(CC(N)=O)C2)C3)c2ncnc(N)c12` (single isomer, unassigned) [Example 50, 2-{3-[9-[1-(4-Amino-3-methyl-1H-pyrazolo[3,4-d]pyrimidin-1-yl)ethyl]-7-chloro-6-cyano-2-methyl-2,3-dihydro-1,4-benzoxazepin-4(5H)-yl]azetidin-1-yl}acetamide], at most 0.1 µM.
Turning to `Cc1nn(C(C)c2cc(Cl)c(F)c3c2O[C@@H](C)CN(C2CN(CC(N)=O)C2)C3)c2ncnc(N)c12` (single isomer, unassigned) [Example 88], the IC50 was at most 0.1 µM.
Still for that read-out and setting: the value for `Cc1nn(C(C)c2cc(Cl)c(C#N)c3c2OC(C)CN(CC(N)=O)C3)c2ncnc(N)c12` (single isomer, unassigned) [Example 110, 2-[9-[1-(4-amino-3-methyl-1H-pyrazolo[3,4-d]pyrimidin-1-yl)ethyl]-7-chloro-6-cyano-2-methyl-2,3-dihydro-1,4-benzoxazepin-4(5H)-yl]acetamide] was at most 0.1 µM; that for `Cc1nn(C(C)c2cc(Cl)c(C#N)c3c2OC(C)CN(Cc2cccnc2)C3)c2ncnc(N)c12` (single isomer, unassigned) [Example 60, 9-[1-(4-Amino-3-methyl-1H-pyrazolo[3,4-d]pyrimidin-1-yl)ethyl]-7-chloro-2-methyl-4-(pyridin-3-ylmethyl)-2,3,4,5-tetrahydro-1,4-benzoxazepine-6-carbonitrile] was at most 0.1 µM; that for `Cc1nn(C(C)c2cc(Cl)c(C#N)c3c2OC(C)CN(C2CN(C(=O)NC(C)C)C2)C3)c2ncnc(N)c12` (single isomer, unassigned) [Example 101, 3-[9-[1-(4-amino-3-methyl-1H-pyrazolo[3,4-d]pyrimidin-1-yl)ethyl]-7-chloro-6-cyano-2-methyl-2,3-dihydro-1,4-benzoxazepin-4(5H)-yl]-N-isopropylazetidine-1-carboxamide] was at most 0.1 µM.
Still for that read-out and setting: the value for `Cc1nn(C(C)c2cc(Cl)c(F)c3c2O[C@@H](C)CN(C2CC(C(N)=O)C2)C3)c2ncnc(N)c12` (single isomer, unassigned) [Example 44] was at most 0.1 µM.

The target of the next experiment is PI3Kδ (p110δ/p85α) (Homo sapiens (Human), UniProt O00329). Nature of the experiment: PI3Kδ Scintillation Proximity Assay (Example A3). The format is biochemical. An excerpt:
Example A3: PI3Kδ Scintillation Proximity Assay
[γ-^33P]ATP (10 mCi/mL) was purchased from Perkin-Elmer (Waltham, Mass.). Lipid kinase substrate, D-myo-Phosphatidylinositol 4,5-bisphosphate (PtdIns(4,5)P2)D (+)-sn-1,2-di-O-octanoylglyceryl, 3-O-phospho linked (PIP2), CAS 204858-53-7, was purchased from Echelon Biosciences (Salt Lake City, Utah). PI3Kδ (p110δ/p85α) was purchased from Millipore (Bedford, Mass.). ATP, MgCl2, DTT, EDTA, MOPS and CHAPS were purchased from Sigma-Aldrich (St. Louis, Mo.). Wheat Germ Agglutinin (WGA) YSi SPA Scintillation Beads was purchased from GE healthcare life sciences (Piscataway, N.J.).
The kinase reaction was conducted in polystyrene 384-well matrix white plate from Thermo Fisher Scientific in a final volume of 25 μL. Inhibitors were first diluted serially in DMSO and added to the plate wells before the addition of other reaction components. The final concentration of DMSO in the assay was 0.5%. The PI3K assays were carried out at room temperature in 20 mM MOPS, pH 6.7, 10 mM MgCl2, 5 mM DTT and CHAPS 0.03%. Reactions were initiated by the addition of ATP, the final reaction mixture consisted of 20 µM PIP2, 20 µM ATP, 0.2 μCi [γ-^33P]ATP, 4 nM PI3Kδ. Reactions were incubated for 210 min and terminated by the addition of 40 μL SPA beads suspended in quench buffer: 150 mM potassium phosphate pH 8.0, 20% glycerol. 25 mM EDTA, 400 µM ATP. The final concentration of SPA beads was 1.0 mg/mL. After the plate sealing, plates were shaken overnight at room temperature and centrifuged at 1800 rpm for 10 minutes, the radioactivity of the product was determined by scintillation counting on Topcount (Perkin-Elmer). IC50 determination was performed by fitting the curve of percent control activity versus the log of the inhibitor concentration using the GraphPad Prism 3.0 software. […] IC50 data for Examples 1-25 is presented in Table 3 for PI3Kδ as determined by the assay of Example A2 or A3 as indicated
In general terms: Scintillation proximity formats need no separation of bound from free tracer.
`Cc1c(Cl)cc(C(C)n2nc(C)c3c(N)ncnc32)c2c1CNCCO2` (stereo not shown) [Example 2, 1-[1-(7-Chloro-6-methyl-2,3,4,5-tetrahydro-1,4-benzoxazepin-9-yl)ethyl]-3-methyl-1H-pyrazolo[3,4-d]pyrimidin-4-amine bis(trifluoroacetate)] showed an IC50 of at most 0.1 µM.
`Cc1c(Cl)cc(C(C)n2nc(C)c3c(N)ncnc32)c2c1CN(C1CCC1)CCO2` (stereo not shown) [Example 5, 1-[1-(7-Chloro-4-cyclobutyl-6-methyl-2,3,4,5-tetrahydro-1,4-benzoxazepin-9-yl)ethyl]-3-methyl-1H-pyrazolo[3,4-d]pyrimidin-4-amine bis(trifluoroacetate)] displayed an IC50 of at most 0.1 µM.
In turn, `Cc1c(Cl)cc(C(C)n2nc(C)c3c(N)ncnc32)c2c1CN(C(=O)CC#N)CCO2` (stereo not shown) [Example 12, 3-[9-[1-(4-Amino-3-methyl-1H-pyrazolo[3,4-d]pyrimidin-1-yl)ethyl]-7-chloro-6-methyl-2,3-dihydro-1,4-benzoxazepin-4(5H)-yl]-3-oxopropanenitrile trifluoroacetate] registered an IC50 of at most 0.1 µM.
`CCC(=O)N1CCOc2c(C(C)n3nc(C)c4c(N)ncnc43)cc(Cl)c(C)c2C1` (stereo not shown) [Example 20, 1-[1-(7-Chloro-6-methyl-4-propionyl-2,3,4,5-tetrahydro-1,4-benzoxazepin-9-yl)ethyl]-3-methyl-1H-pyrazolo[3,4-d]pyrimidin-4-amine trifluoroacetate] came in with an IC50 of at most 0.1 µM.
`Cc1c(Cl)cc(C(C)n2nc(C)c3c(N)ncnc32)c2c1CN(C(=O)C(C)C)CCO2` (stereo not shown) [Example 22, 1-[1-(7-Chloro-4-isobutyryl-6-methyl-2,3,4,5-tetrahydro-1,4-benzoxazepin-9-yl)ethyl]-3-methyl-1H-pyrazolo[3,4-d]pyrimidin-4-amine trifluoroacetate] returned an IC50 of at most 0.1 µM.
`CC(=O)N1CC(N2CCOc3c(C(C)n4nc(C)c5c(N)ncnc54)cc(Cl)c(C)c3C2)C1` (stereo not shown) [Example 4, 1-{1-[4-(1-Acetylazetidin-3-yl)-7-chloro-6-methyl-2,3,4,5-tetrahydro-1,4-benzoxazepin-9-yl]ethyl}-3-methyl-1H-pyrazolo[3,4-d]pyrimidin-4-amine] showed an IC50 of at most 0.1 µM.
The compound `Cc1c(Cl)cc(C(C)n2nc(C)c3c(N)ncnc32)c2c1CN(CC#N)CCO2` (stereo not shown) [Example 11, [9-[1-(4-Amino-3-methyl-1H-pyrazolo[3,4-d]pyrimidin-1-yl)ethyl]-7-chloro-6-methyl-2,3-dihydro-1,4-benzoxazepin-4(5H)-yl]acetonitrile bis(trifluoroacetate)] registered an IC50 of at most 0.1 µM.
Take `Cc1c(Cl)cc(C(C)n2nc(C)c3c(N)ncnc32)c2c1CN(S(=O)(=O)C1CC1)CCO2` (stereo not shown) [Example 18, 1-{1-[7-Chloro-4-(cyclopropylsulfonyl)-6-methyl-2,3,4,5-tetrahydro-1,4-benzoxazepin-9-yl]ethyl}-3-methyl-1H-pyrazolo[3,4-d]pyrimidin-4-amine trifluoroacetate]: the IC50 was at most 0.1 µM.
For the compound `Cc1c(Cl)cc(C(C)n2nc(C)c3c(N)ncnc32)c2c1CN(C1CN(C(=O)OC(C)(C)C)C1)CCO2` (stereo not shown) [Example 3, tert-Butyl 3-[9-[1-(4-amino-3-methyl-1H-pyrazolo[3,4-d]pyrimidin-1-yl)ethyl]-7-chloro-6-methyl-2,3-dihydro-1,4-benzoxazepin-4(5H)-yl]azetidine-1-carboxylate], the IC50 was at most 0.1 µM.
Take `COCC(=O)N1CCOc2c(C(C)n3nc(C)c4c(N)ncnc43)cc(Cl)c(C)c2C1` (stereo not shown) [Example 21, 1-{1-[7-Chloro-4-(methoxyacetyl)-6-methyl-2,3,4,5-tetrahydro-1,4-benzoxazepin-9-yl]ethyl}-3-methyl-1H-pyrazolo[3,4-d]pyrimidin-4-amine trifluoroacetate]: the IC50 was at most 0.1 µM.
Regarding `Cc1c(Cl)cc(C(C)n2nc(C)c3c(N)ncnc32)c2c1CN(C(C)C)CCO2` (stereo not shown) [Example 10, 1-[1-(7-Chloro-4-isopropyl-6-methyl-2,3,4,5-tetrahydro-1,4-benzoxazepin-9-yl)ethyl]-3-methyl-1H-pyrazolo[3,4-d]pyrimidin-4-amine bis(trifluoroacetate)], the IC50 is at most 0.1 µM.
